Structures are written as SMILES. Like-named read-outs stand apart in the source and are kept apart here. Positions of bridges follow the written chain, without caps; N, C: chain ends. Non-standard residues stand in square brackets, D forms with d. Residues, ends and D or L forms follow the SMILES beside them. *: point of attachment. DOTA = O=C(O)CN1CCN(CC(=O)O)CCN(CC(=O)*)CCN(CC(=O)O)CC1; Cha = N[C@@H](CC1CCCCC1)C(=O)O

By IC50 is commonly meant the concentration needed to halve the response being measured. In general, Kd refers to the free concentration of one partner at which half of the binding sites on the other are occupied at equilibrium, for simple one-to-one binding. One may read the koff as the rate constant with which the complex falls apart. Read a low koff as a long-lived complex. One may read the kon as the second-order rate constant of association.

In series [1] the target is T1, uPAR•uPA interaction (Homo sapiens, UniProt Q03405).
T1 construct: Recombinant human uPAR^1–283 was expressed; made in house; host or cells: Drosophila melanogaster S2 cells
T1 sequence (Q03405 23-305): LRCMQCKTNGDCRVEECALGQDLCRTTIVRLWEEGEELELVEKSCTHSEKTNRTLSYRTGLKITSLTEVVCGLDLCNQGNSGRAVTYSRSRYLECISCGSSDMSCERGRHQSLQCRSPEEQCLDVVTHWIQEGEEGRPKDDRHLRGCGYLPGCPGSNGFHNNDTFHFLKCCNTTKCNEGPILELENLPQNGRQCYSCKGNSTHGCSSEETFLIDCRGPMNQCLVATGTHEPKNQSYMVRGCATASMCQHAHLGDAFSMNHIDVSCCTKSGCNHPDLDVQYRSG
The series is described as follows: SPR competition assay of the uPAR•uPA interaction. The settings on record: competition of uPAR•uPA interaction, 2 nM uPAR, 20 °C, n = 3. The format is binding. Here is the method:
The IC50-values of antagonistic peptides on the uPAR•uPA interaction were determined with SPR using a Biacore T200™ or Biacore 3000™ instruments (Cytiva) essentially as described[4],[56],[77]. In brief, we immobilized high levels of pro-uPA^S356A (0.1 pmol pro-uPA/mm^2) on a CM5 sensor chip via amine coupling. The experiments were conducted by injecting 2 nM uPAR in presence of a threefold dilution series of a given antagonistic peptide for 300 s with a flow rate of 50 µL/min at 20 °C. The high immobilization levels result in binding conditions that are entirely controlled by mass transport limitations (MTL). Accordingly, the observed association rates (vobs) are directly proportional to the concentrations of binding-active uPAR in solution. To determine the IC50, we also measured a standard curve of uPAR binding (a twofold dilution series of 0.06 to 2 nM uPAR, linear due to MTL). The running buffer was 10 mM HEPES, 150 mM NaCl, 3 mM EDTA, and 0.05% (v/v) surfactant P-20 at pH 7.4, and the regeneration buffer was 0.1 M acetic acid in 0.5 M NaCl.

The target of series [2] is T2, uPAR (Homo sapiens, UniProt Q03405).
T2 construct: Recombinant human uPAR^1–283 was expressed; made in house; host or cells: Drosophila melanogaster S2 cells
T2 sequence (Q03405 23-305): as above
Put plainly: SPR real-time binding kinetics, peptides in solution and immobilised uPAR. Here is the method: The real-time binding kinetics of uPAR•peptide interactions were measured with SPR using a Biacore T200™(Cytiva); essentially as described in[56],[77]. In brief, uPAR was covalently immobilised on a CM5 sensor chip via amine coupling resulting in a surface density of 1157–1581 RU (~ 33–44 fmol/mm^2). The binding kinetics for the peptides to immobilised uPAR were measured using a single cycle protocol. In this setup, peptides were injected as five serial two-fold dilutions with a contact time of 200 s. After the last analyte injection, the dissociation time was set to 1000 s. The sensor chip was regenerated with two consecutive injections of 0.1 M acetic acid in 0.5 M NaCl. All experiments were conducted at 20 °C with a flow rate of 50 µL/min in 10 mM HEPES, 150 mM NaCl, 3 mM EDTA, and 0.05% (v/v) surfactant P-20 at pH 7.4. The kinetic rate constants (kon and koff) were determined by non-linear regression fitting of the curves to the simple bimolecular interaction model (BiacoreT200 Evaluation™ 3.0 software).

The target of series [3] is T2, uPAR. Put plainly: Nano-DSF thermal stability of uPAR•peptide complexes. Here is the method:
The thermal stability of the uPAR•peptide complexes was analyzed with Nano-DSF using a Prometheus NT.48™ (Nanotemper). uPAR (15 µM) was mixed with twofold excess of peptide (30 µM) in PBS pH 7.4 and incubated for 15 min at RT to ensure complex formation. Samples containing either 15 µM uPAR or 30 µM of each peptide were included as controls. The samples were loaded into standard capillaries and in triplicates. To unfold the proteins, the samples were exposed to an increasing temperature gradient from 20 to 95 °C with a ramping rate of 1 °C/min. The excitation power was set to 50% (Ex.280 nm) and the fluorescence emission collected at 330 nm and 350 nm. The melting temperatures of the complexes were determined in the PR.ThermControl software (Nanotemper) from the first derivative of the fluorescence ratio (350 nm/330 nm).
In general terms: In DSF a fluorescence change marks the thermal transition of the protein.

Series [4] deals with uPAR expression in U87MG tumor-bearing mice. It counts as in vivo. The settings on record: [64Cu]Cu-DOTA peptides. Here is the method: Five weeks old female NMRI nude mice were purchased from Janvier (Le Genest-Saint-Isle, France) and housed in groups to acclimatize for a week upon arrival with light/dark period of 12/12 h and under controlled environmental conditions (temperature: 20–22 °C, relative humidity: 55%). Access to fresh water and standard pellet diet was provided ad libitum. Human glioblastoma cancer cell line U87MG (ATCC, Manassas, USA) was cultured in Dulbecco’s modified eagle medium (DMEM) supplemented with 10% fetal bovine serum and 1% penicillin–streptomycin at 37 °C and 5% CO2. Cells were harvested by trypsinization at a confluence of 70–90%. Mice were anesthetized (3–4% sevoflurane in 65% N2 and 35% O2) and ~ 4 × 10^6 U87MG cells resuspended in 100 μL PBS were injected subcutaneously into the right flank. Tumors were allowed to grow for 20 days. Tumor sizes were monitored using caliper measurements (Volume = 0.5 x (Length x Width^2)).
Tumor-bearing mice (tumor volumes (mean ± SD) of 221 ± 105 mm^3) were grouped (n = 6 per group) and anesthetized (3–4% sevoflurane in 65% N2 and 35% O2) prior to imaging. The four different [^64Cu]Cu–DOTA conjugated peptides were administered via tail vein injections of 5.4 ± 0.4 MBq corresponding to 118 ± 7 pmol (1b), 111 ± 4 pmol (8b), 92 ± 3 pmol (9b), and 75 ± 4 pmol (11b) (mean ± SD). Whole-body imaging consisting of a CT acquisition followed by a static PET acquisition was performed on an Inveon® small animal imaging system (Siemens Medical Systems, Malvern, PA, USA). PET/CT imaging was performed 1 h, 22 h, and 46 h post-injection (p.i.) of tracer with a 5 min, 10 min and 15 min PET scan, respectively. During scans the animals were placed on a heated bedding system to keep the body temperature stable. The PET acquisition was performed with an energy window of 350–650 keV and a time resolution of 6 ns, and data was corrected for dead time and decay. The CT scan consisted of 360 projections, with a tube voltage of 65 kV, a tube current of 500 μA and an exposure time of 400 ms per projection. Sinograms from PET scans were reconstructed using a 3-dimensional maximum a posteriori algorithm with correction for scatter and attenuation (CT-based). PET and CT images were co-registered and analyzed using Inveon Research Workplace software (Siemens Medical Solutions). The mean percentage of injected dose per grams (%ID/g) in different tissues was extracted by manually creating regions of interest (ROI) on fused PET/CT images.

The test system of series [5] is U87MG tumor-bearing mice. The series is described as follows: Ex vivo biodistribution by gamma-counting of resected organs. It counts as in vivo. The conditions noted are these: [64Cu]Cu-DOTA peptides, ex vivo at 46 h; also tumor to muscle or heart ratios. Here is the method:
After the last PET/CT scan at 46 h p.i., mice were euthanized by cervical dislocation under anesthesia, and tumor, blood, heart, lung, liver, spleen, kidney, and muscle tissue were resected. All tissues were weighted, and the radioactivity measured in a gamma counter (Wizard2, Perkin Elmer). Data was corrected for decay, tissue weight and injected amount of radioactivity.

The mark [6] stands for this setting: [63Cu]-DOTA labelled peptides, single-cycle SPR.

`CC(C)C[C@@H]1NC(=O)[C@H](Cc2ccc(O)cc2)NC(=O)[C@H](NC(=O)[C@@H](CO)NC(=O)[C@H](Cc2ccccc2)NC(=O)[C@H](CC2CCCCC2)NC(=O)[C@H](CC(=O)O)NC(=O)CN2CCN(CC(=O)O)CCN(CC(=O)O)CCN(CC(=O)O)CC2)CSSC[C@@H](C(N)=O)NC(=O)[C@H](Cc2c[nH]c3ccccc23)NC1=O` [9b] ({DOTA}-D[Cha]F[dS][dC]YLWC-NH2; disulfide 5-9) displayed an IC50 in series [1] of 7.3 ± 0.2 nM. Besides, the Kd in series [2] (setting [6]) came out at 22 nM; in series [2] (single cycle SPR, immobilised uPAR, 20 °C, 1:1 model), 4.26 nM. Moreover, the koff in series [2] (setting [6]) stood at 0.00659 ± 2e-05 s⁻¹; in series [2] (single cycle SPR, immobilised uPAR, 20 °C) it was 0.002744 ± 4e-06 s⁻¹. The kon was 2.99 ± 0.04 105 M-1 s-1 in series [2] (setting [6]) and 644000 ± 2000 M⁻¹ s⁻¹ in series [2] (single cycle SPR, immobilised uPAR, 20 °C, read-out: kon). In addition, the “Tm (apparent melting temperature of uPAR•peptide complex)” value in series [3] (15 µM uPAR, 30 µM peptide, PBS pH 7.4, n = 3) was ≥ 70 °C. In addition, the “increase in apparent Tm” value in series [3] (DOTA-conjugated peptides, compared to (1b)) was “approximately 11 °C”. In addition, the “tumor uptake and tumor-to-organ ratios compared to linear control (8b)” value in series [4] is reported as “significant albeit weak improvement”. For the same compound, the “difference in tumor max compared to (8b)” value in series [4] (PET at 22 h) was “statistically significant”. Further, the “tracer uptake compared to (8b)” value in series [4] (all PET scans (1 h, 22 h, 46 h)) is “small but consistently higher uptake”. In addition, in series [5], the “difference in activity of resected tumors compared to (8b)” value was “statistically significant”.

Values taken from article PMC10567728, “Targeted imaging of uPAR expression in vivo with cyclic AE105 variants” (Scientific Reports, 2023).
